Assay results reported in PubChem BioAssay AID2060890 (Molecular Pharmacology Branch, DTP, NCI, 2025).

Tested on: LG0703-F948-PDC complex spheroid viability
Experiment: Anticancer human tumor LG0703-F948-PDC patient-derived lung adenocarcinoma cell line growth inhibition [RAS]
Conditions: for IC50: curve of first compound; for viability, T/C: stronger effect = lower value
Source text: RAS pathway inhibitors in Combinations in Complex Spheroids
A high-throughput screen of multi-cell type tumor spheroids was designed to identify active combinations of RAS pathway inhibitors and targeted small molecules. Complex spheroids include a stromal component modeled by human endothelial cells (HUVEC) and fibroblasts modeled by human mesenchymal stem cells (MSCs). The concentration ranges selected for each drug and investigational agent were based upon clinically achievable concentrations if the clinical Cmax of the agent was known.
Compounds. The drugs and investigational agents: abemaciclib (NSC768073), cobimetinib (NSC768068), divarasib (GDC6063, NSC841802), docetaxel (NSC628503), GDC-1971 (RLY-1971, NSC841576), gemcitabine (NSC613327), inavolisib (NSC800729), ipatasertib (NSC767898), KB-0742 (NSC834161), MRTX-1133 (NSC836407), osimertinib (NSC779217), RMC-4630 (NSC839698), RMC-6236 (NSC851965), RMC-6291 (NSC852671), Ro-3306 (NSC812927), sapanisertib (NSC764658), SN-38 (NSC673596), staurosporine (NSC755774), SY5609 (NSC837396), and tovorafenib (DAY101, NSC766906), were obtained from the National Cancer Institute (NCI) Developmental Therapeutics Program Chemical Repository. The FDA-approved anticancer drug set is available from the NCI Developmental Therapeutics Program. […] The stock solutions were prepared in dimethyl sulfoxide (DMSO, Sigma-Aldrich, St. Louis, MO, cat. D2650) at 800-fold the tested concentration and stored at -70 degrees C prior to their use. All drugs and investigational agents were tested over a range starting from a high concentration at or near the clinical Cmax and decreasing in half-log increments. If the clinical Cmax for an agent had not been determined, the highest concentration tested was 10 microM.
Cell Culture. All cells were maintained in an incubator at 37 degrees C and 5% CO2 with 95% humidity. The PDC lines were cultured according to standard operating procedures established by the NCI PDMR. All PDCs were thawed and cultured in Matrigel-coated flasks prepared with a working solution of 1X Ham's F-12 nutrient mix, without supplementation (Invitrogen, Waltham, MA, cat. 11765054), 100 U/mL penicillin-streptomycin (Invitrogen, cat. 15140122), and 2.5% Matrigel (Corning Inc., Corning, NY, cat. 354248) for the first three passages. The 362531-283-R-J2-PDC and 782815-120-R-J1-PDC lines were cultured in 6C/Colon 1B media, which includes advanced DMEM/F-12 (Thermo Fisher Scientific, cat. 12634028), 10 mM HEPES (Thermo Fisher Scientific, cat. 15630080), 1X GlutaMAX supplement (Thermo Fisher Scientific, cat. 35050061), 0.1 mg/mL primocin (InvivoGen, San Diego, CA, cat. ant-pm-2), 10% defined fetal bovine serum, heat inactivated (HyClone Laboratories Inc., Logan, UT, cat. SH30070.03HI), 50% L-WRN conditioned media (ATCC, cat. CRL-3276), 1.25 mM N-Acetyl-L-cysteine (Sigma-Aldrich, cat. A9165), 10 mM nicotinamide (Sigma-Aldrich, cat. N0636), 1X B-27 supplement (Thermo Fisher Scientific, cat. 17504044), 1X N-2 supplement (Thermo Fisher Scientific, cat. 17502048), 50 ng/mL human EGF (Thermo Fisher Scientific, cat. PHG0311), and 10 microM Y-27632 dihydrochloride (Tocris Bioscience, cat. 1254). The K12877-001-R-J1-PDC line was cultured in 6I media, which includes all 6C/Colon 1B media plus 10 ng/mL human FGF-10 (PeproTech, cat. 100-26), 1 ng/mL human FGF-2 (PeproTech, cat. 100-18B), 1 µM prostaglandin E2 (Tocris Bioscience, cat. 2296), […] hydrocortisone (Sigma-Aldrich, cat. H4001), and […] bovine insulin (Sigma-Aldrich, cat. I6634). The K86415-001-R-J1-PDC line was cultured in 6D media, which includes all 6C/Colon 1B media components minus the L-WRN conditioned media. The 485176-168-R4-J1-PDC was cultured in PANC media, which includes all 6C/Colon 1B media plus 100 ng/mL human FGF-10 (PeproTech, cat. 100-26), 500 nM SB-431542 (Selleckchem, cat. S1067), and 10 nM gastrin (Tocris Bioscience, cat. 3006). […]

[1] = second compound 0.0316 µM, first compound 0.0316 µM
[2] = second compound 0.0316 µM, first compound 0.1 µM
[3] = second compound 0.1 µM, first compound 0.0316 µM
[4] = second compound 0.1 µM, first compound 0.1 µM
[5] = second compound 0.316 µM, first compound 0.0316 µM
[6] = second compound 0.316 µM, first compound 0.1 µM
[7] = second compound 1 µM, first compound 0.0316 µM
[8] = second compound 1 µM, first compound 0.1 µM
[9] = second compound 3.16 µM, first compound 0.0316 µM
[10] = second compound 3.16 µM, first compound 0.1 µM
[11] = second compound 10 µM, first compound 0.0316 µM
[12] = second compound 10 µM, first compound 0.1 µM
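For viability, T/C in this document: 100% = DMSO vehicle wells.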

CC(C)n1nc(-c2ccc3oc(N)nc3c2)c2c(N)ncnc21 + C#Cc1c(F)ccc2cc(O)cc(-c3ncc4c(N5CC6CCC(C5)N6)nc(OCC56CCCN5CC(F)C6)nc4c3F)c12
IC50 (second compound 0.0316 µM): 4.71 nM
IC50 (second compound 0.1 µM): 3.96 nM
IC50 (second compound 0.316 µM): 3.99 nM
IC50 (second compound 1 µM): 2.13 nM
IC50 (second compound 3.16 µM): 0.608 nM
IC50 (second compound 10 µM): 0.343 nM
viability, T/C (second compound 0.0316 µM, first compound 0.000316 µM): 90.7%
viability, T/C (second compound 0.0316 µM, first compound 0.001 µM): 82.5%
viability, T/C (second compound 0.0316 µM, first compound 0.00316 µM): 59.2%
viability, T/C (second compound 0.0316 µM, first compound 0.01 µM): 32%
viability, T/C [1]: 18%
viability, T/C [2]: 12.3%
viability, T/C (second compound 0.1 µM, first compound 0.000316 µM): 80.7%
viability, T/C (second compound 0.1 µM, first compound 0.001 µM): 85.6%
viability, T/C (second compound 0.1 µM, first compound 0.00316 µM): 47.7%
viability, T/C (second compound 0.1 µM, first compound 0.01 µM): 34%
viability, T/C [3]: 19.7%
viability, T/C [4]: 11%
viability, T/C (second compound 0.316 µM, first compound 0.000316 µM): 88.3%
viability, T/C (second compound 0.316 µM, first compound 0.001 µM): 75.3%
viability, T/C (second compound 0.316 µM, first compound 0.00316 µM): 57.6%
viability, T/C (second compound 0.316 µM, first compound 0.01 µM): 27.1%
viability, T/C [5]: 11.2%
viability, T/C [6]: 8.26%
viability, T/C (second compound 1 µM, first compound 0.000316 µM): 67.6%
viability, T/C (second compound 1 µM, first compound 0.001 µM): 51%
viability, T/C (second compound 1 µM, first compound 0.00316 µM): 50.2%
viability, T/C (second compound 1 µM, first compound 0.01 µM): 21.1%
viability, T/C [7]: 9.33%
viability, T/C [8]: 5.14%
viability, T/C (second compound 3.16 µM, first compound 0.000316 µM): 58.6%
viability, T/C (second compound 3.16 µM, first compound 0.001 µM): 44.2%
viability, T/C (second compound 3.16 µM, first compound 0.00316 µM): 23.4%
viability, T/C (second compound 3.16 µM, first compound 0.01 µM): 13.9%
viability, T/C [9]: 5.52%
viability, T/C [10]: 3.09%
viability, T/C (second compound 10 µM, first compound 0.000316 µM): 50.9%
viability, T/C (second compound 10 µM, first compound 0.001 µM): 37.8%
viability, T/C (second compound 10 µM, first compound 0.00316 µM): 16.5%
viability, T/C (second compound 10 µM, first compound 0.01 µM): 4.6%
viability, T/C [11]: 2.45%
viability, T/C [12]: 0.63%

C[C@@H](NC(=O)c1ncnc(N)c1Cl)c1ncc(C(=O)Nc2cc(C(F)(F)F)c(Cl)cn2)s1 + C#Cc1c(F)ccc2cc(O)cc(-c3ncc4c(N5CC6CCC(C5)N6)nc(OCC56CCCN5CC(F)C6)nc4c3F)c12
IC50 (second compound 0.0316 µM): > 10000 nM
IC50 (second compound 0.1 µM): > 10000 nM
IC50 (second compound 0.316 µM): > 10000 nM
IC50 (second compound 1 µM): > 10000 nM
IC50 (second compound 3.16 µM): > 10000 nM
IC50 (second compound 10 µM): > 10000 nM
viability, T/C [1]: 108%
viability, T/C [2]: 92.3%
viability, T/C (second compound 0.0316 µM, first compound 0.316 µM): 101%
viability, T/C (second compound 0.0316 µM, first compound 1 µM): 96.7%
viability, T/C (second compound 0.0316 µM, first compound 3.16 µM): 103%
viability, T/C (second compound 0.0316 µM, first compound 10 µM): 104%
viability, T/C [3]: 87.5%
viability, T/C [4]: 87.6%
viability, T/C (second compound 0.1 µM, first compound 0.316 µM): 98.3%
viability, T/C (second compound 0.1 µM, first compound 1 µM): 103%
viability, T/C (second compound 0.1 µM, first compound 3.16 µM): 104%
viability, T/C (second compound 0.1 µM, first compound 10 µM): 98.3%
viability, T/C [5]: 85.8%
viability, T/C [6]: 76.6%
viability, T/C (second compound 0.316 µM, first compound 0.316 µM): 87.3%
viability, T/C (second compound 0.316 µM, first compound 1 µM): 95.4%
viability, T/C (second compound 0.316 µM, first compound 3.16 µM): 109%
viability, T/C (second compound 0.316 µM, first compound 10 µM): 99%
viability, T/C [7]: 86.7%
viability, T/C [8]: 74.1%
viability, T/C (second compound 1 µM, first compound 0.316 µM): 64.3%
viability, T/C (second compound 1 µM, first compound 1 µM): 83.5%
viability, T/C (second compound 1 µM, first compound 3.16 µM): 73.5%
viability, T/C (second compound 1 µM, first compound 10 µM): 80%
viability, T/C [9]: 63.1%
viability, T/C [10]: 66.3%
viability, T/C (second compound 3.16 µM, first compound 0.316 µM): 58.6%
viability, T/C (second compound 3.16 µM, first compound 1 µM): 68%
viability, T/C (second compound 3.16 µM, first compound 3.16 µM): 65.4%
viability, T/C (second compound 3.16 µM, first compound 10 µM): 66.6%
viability, T/C [11]: 56.8%
viability, T/C [12]: 60.5%
viability, T/C (second compound 10 µM, first compound 0.316 µM): 56.4%
viability, T/C (second compound 10 µM, first compound 1 µM): 56.1%
viability, T/C (second compound 10 µM, first compound 3.16 µM): 70.9%
viability, T/C (second compound 10 µM, first compound 10 µM): 39.5%
